Results reported in patent EP4706657A1, “COMBINATION THERAPY OF PEXIDARTINIB AND NINTEDANIB FOR PREVENTION OR TREATMENT OF PULMONARY FIBROSIS” (Korea Institute of Radiological & Medical Sciences, priority 2023, dated 2024).

Legend:
[1] = tested on: radiation-induced pulmonary fibrosis; test: Inhibitory effect on radiation-induced pulmonary fibrosis in mice (Micro-CT, H&E and Masson's Trichrome staining); assay type: in vivo; conditions: SBRT 90 Gy, 4 mm collimator, male C57BL/6 mice; each drug 60 mg/kg orally daily, starting one hour before irradiation; Micro-CT two weeks after radiation exposure; compared to untreated group
From the text: Seven-week-old male C57BL/6 mice were divided into groups treated with IM-1, nintedanib, and the combination of the two drugs (IM-1 + nintedanib). One hour before stereotactic body radiation therapy (SBRT; 90 Gy, 4 mm collimator), the drugs were orally administered to the mice. The degree of pulmonary fibrosis and the inhibitory effect on radiation-induced lung injury were observed two weeks after radiation exposure. The IM-1 and nintedanib groups were each administered the respective drug daily at a dose of 60 mg/kg, and the combination group was administered both drugs daily at 60 mg/kg each. Additionally, to analyze the degree of inflammatory response and the degree of fibrosis, H&E staining and Masson's Trichrome staining were performed.

[2] = tested on: pulmonary fibrosis induced by bleomycin; test: Inhibitory effect on pulmonary fibrosis induced by bleomycin in mice (Micro-CT, H&E and Masson's Trichrome staining, survival); assay type: in vivo; conditions: bleomycin sulfate 1.5 U/kg, male C57BL/6 mice; each drug 60 mg/kg orally once daily for two weeks starting 14 days after bleomycin; Micro-CT 4 weeks after bleomycin; compared to untreated group
Method: Each drug was administered starting 14 days after the administration of bleomycin. The control drugs, nintedanib and pexidartinib (IM-1), were both administered at a dose of 60 mg/kg, and the co-administration group was orally administered nintedanib (60 mg/kg) with IM-1 (60 mg/kg) once daily for two weeks (a total of 13 administrations). Additionally, to analyze the degree of inflammatory response and the degree of fibrosis, H&E staining and Masson's Trichrome staining were performed. In addition, the mouse survival rate was compared in FIG. 3.

FC(F)(F)c1ccc(CNc2ccc(Cc3c[nH]c4ncc(Cl)cc34)cn2)cn1 [IM-1, 5-((5-chloro-1H-pyrrolo[2,3-b]pyridin-3-yl)methyl)-N-((6-(trifluoromethyl)pyridin-3-yl)methyl)pyridin-2-amine]
degree of fibrosis [1]: a reduction in the degree of fibrosis
degree of fibrosis [2]: a reduction in the degree of fibrosis

COC(=O)c1ccc2c(c1)NC(=O)/C2=C(\Nc1ccc(N(C)C(=O)CN2CCN(C)CC2)cc1)c1ccccc1 [nintedanib, methyl (3Z)-3-{[(4-{methyl[(4-methylpiperazin-1-yl)acetyl]amino}phenyl)amino](phenyl)methylidene}-2-oxo-2,3-dihydro-1H-indole-6-carboxylate]
degree of fibrosis [1]: a reduction in the degree of fibrosis
degree of fibrosis [2]: a reduction in the degree of fibrosis
